Measurements from US12138254B2, “Chronic nightly dosing of lasmiditan for migraine prevention” (Eli Lilly and Company, priority 2018, dated 2024).
Read-outs that look alike come from different tables or passages of the source.

Tests used:
[1] = test system: patients with migraine; assay: Phase 3 studies SAMURAI and SPARTAN, lasmiditan vs placebo for acute treatment of migraine; format: in vivo, human
Source text: Prior clinical development studies of lasmiditan have employed acute on-demand treatment regimens to relieve migraine pain and symptoms and treat migraine. […] From this analysis, the authors concluded the primary and key secondary endpoints were met and safety outcomes were consistent across the two Phase 3 studies. Thus, acute on-demand use of lasmiditan provides effective treatment for a substantial population of migraine patients, however some patients may continue to have attacks and improved methods of treating and/or preventing these attacks represent an important therapeutic goal.
The placebo-controlled Phase 3 studies SAMURAI (NCT02439320) and SPARTAN (NCT02605174) evaluated lasmiditan 50 mg [SPARTAN only], 100 mg and 200 mg. […] GLADIATOR (NCT02565186) is a prospective randomized open-label Phase 3 study to evaluate long-term intermittent use of lasmiditan (100 mg or 200 mg) for acute treatment of migraine. An interim analysis of the effects of lasmiditan on migraine disability assessed with the MIDAS scale in GLADIATOR is described below, and has provided surprising and unexpected evidence of persistent beneficial effects in migraine patients.

[2] = Fraction unbound in plasma and brain (FUplasma, FUbrain)
[3] = Unbound plasma and brain levels of lasmiditan in rats from dural PPE studies; format: in vivo, Sprague-Dawley rats; details: rat; for concentration at 1 h / concentration at 24 h: male, Sprague-Dawley; for concentration at 1 h: 1 hr post-dose; for concentration at 24 h: 24 hrs post-dose
Description: Lasmiditan-hemisuccinate is dissolved in sterile water. All doses of lasmiditan are reported as free base equivalent doses, accounting for the weight of the salt. Envigo Sprague-Dawley, Sprague-Dawley male rats (250-350 grams, n=4/group) are fasted overnight prior to dosing. The animals are orally gavaged (2 mL/kg dose volume) with test compound or vehicle one hour prior to stimulation time and returned to their cages with only water available. Approximately 50 minutes post-dosing, the rats are anesthetized with Nembutal (65 mg/kg, ip.) and implanted with stainless steel stimulating electrodes (Rhodes Medical Systems, Inc.) to a depth of 9.2 mm. from the dura. The femoral vein is exposed and fluorescein isothiocyanate-labeled bovine serum albumin (FITC-BSA) (20 mg/kg, iv.), is injected into the femoral vein 2 minutes prior to stimulation. The FITC-BSA functions as a marker for protein extravasation. The left trigeminal ganglion is stimulated for 5 minutes at a current intensity of 1.0 mA (5 Hz, 5 msec pulse duration) with a Model S48 Grass Instrument Stimulator with PSIU6 photoelectric isolation unit (Grass-Telefactor). Five minutes following stimulation, a blood sample is collected by cardiac puncture and the rats are sacrificed by exsanguination with 40 ml of saline. One milliliter of blood is collected and placed in a 1.5 ml EDTA coated tube (Fisher Cat. #540734) on ice. Plasma is separated via centrifugation at 10,000 rpm (941 g) for thirty minutes at 4° C. The top of the skull is removed to collect the brain and dural membranes. The brain and plasma samples are frozen at −80° C. until thawed for compound quantification. The membrane samples are removed from both hemispheres, rinsed with water, and spread flat on microscope slides. The slides are dried for 15 minutes on a slide warmer, then the tissues are cover-slipped with a 70% glycerol/water solution. A fluorescence microscope (Zeiss) equipped with a grating monochromator and a spectrophotometer is used to quantify the amount of FITC-BSA dye in each dural sample. The extravasation induced by electrical stimulation of the trigeminal ganglion is an ipsilateral effect (i.e. occurs only on the side of the dura in which the trigeminal ganglion was stimulated). This allows the other (unstimulated) half of the dura to be used as the control. The ratio of extravasation in the dura from the stimulated side versus the unstimulated side is calculated and reported as the extravasation ratio for each animal. The mean extravasation ratio and standard error of the mean (SEM) are calculated for each treatment group. Controls yield a ratio of approximately 1.8. In contrast, a compound which effectively prevents the extravasation in the dura from the stimulated side would have a ratio of approximately 1. The resulting data are analyzed with a one-way ANOVA followed by Dunnett's post hoc to determine statistical significance (p<0.05). Levels of compound in the plasma and brain samples for each animal are analyzed according to methods known to the skilled artisan. Evaluation of Compound Potency 24 or 48 Hours Following Oral Administration Envigo Sprague-Dawley, Sprague-Dawley male rats (250-350 grams, n=4/group) are fasted overnight prior to dosing for the duration p.o. study. The animals are orally gavaged with test compound or vehicle and returned to their cages with only water available; with food returned 1 hour later. Either 24 or 48 post-dose, the animals are anesthetized with Nembutal (65 mg/kg, ip.) and placed in a stereotaxic frame (David Kopf Instruments). The remainder of the protocol is identical to the method immediately above for Evaluation of Compound Potency 1 Hour Following Oral Administration. […] However, the unbound plasma and brain concentrations measured 24 hours following the administration of the 10 mg/kg dose, are not different from the exposures associated with the non-efficacious 0.1 mg/kg dose at one hour. […]

[4] = brain, 10 mg/kg po, read-out: Unbound Brain Cone (mean ± SD; n = 4)
[5] = plasma, 10 mg/kg po, read-out: Unbound Plasma Cone (mean ± SD; n = 4)
[6] = 10 mg/kg po, 48 hrs post-dose, BQL = below quantitation level

**Q.** What does the source list for `CN1CCC(C(=O)c2cccc(NC(=O)c3c(F)cc(F)cc3F)n2)CC1` [Lasmiditan, 2,4,6-trifluoro-N-[6-(1-methyl-piperidin-4-ylcarbonyl)-pyridin-2-yl]-benzamide]?
**A.** recurrence rates of migraine ([1]; 50-mg to 200-mg dose range, 2-hour to 24-hour time frame after dosing): similarly low; efficacy on 2-hour pain freedom, dose relation ([1]; completed single-attack Phase 3 studies): dose related; TEAEs, 200 mg vs 100 mg ([1]; studies of lasmiditan for acute treatment of migraine): numerically more TEAEs; FUbrain ([2]; brain): FUbrain = 0.117,; FUplasma ([2]; plasma): FUplasma = 0.459,; concentration at 1 h ([3]; brain, 0.1 mg/kg po, read-out: Unbound Brain Cone (mean ± SD; n = 4)): 2 ± 0.1 nM; concentration at 1 h ([3]; brain, 1 mg/kg po, read-out: Unbound Brain Cone (mean ± SD; n = 4)): 16.6 ± 3.6 nM; concentration at 1 h [3, 4]: 242 ± 95 nM; concentration at 24 h [3, 4]: 2.1 ± 0.9 nM; concentration at 1 h ([3]; plasma, 0.1 mg/kg po, read-out: Unbound Plasma Cone (mean ± SD; n = 4)): 6 ± 1.9 nM; concentration at 1 h ([3]; plasma, 1 mg/kg po, read-out: Unbound Plasma Cone (mean ± SD; n = 4)): 67 ± 19.8 nM; concentration at 1 h [3, 5]: 767 ± 254 nM; concentration at 24 h [3, 5]: 6.2 ± 2.5 nM; Unbound Brain Cone (mean ± SD; n = 4) [3, 6]: BQL; Unbound Plasma Cone (mean ± SD; n = 4) [3, 6]: BQL
